Source: patent US6965033B2, “Bisamidate phosphonate prodrugs” (Metabasis Therapeutics, Inc., priority 1999, dated 2005)
pIC50: −log10 of the molar value. Where a name gives a salt, the structure may show the parent alone.

Columns and labels:
rat liver FBPase = molecular target: T1, rat liver FBPase (Rattus norvegicus, UniProt P19112); test: Inhibition of Rat Liver FBPase; format: biochemical; conditions: read-out: IC50 (rlFBPase)
T1 construct: made in house; host or cells: E. coli BL21
T1 sequence (P19112 2-363 limits assumed): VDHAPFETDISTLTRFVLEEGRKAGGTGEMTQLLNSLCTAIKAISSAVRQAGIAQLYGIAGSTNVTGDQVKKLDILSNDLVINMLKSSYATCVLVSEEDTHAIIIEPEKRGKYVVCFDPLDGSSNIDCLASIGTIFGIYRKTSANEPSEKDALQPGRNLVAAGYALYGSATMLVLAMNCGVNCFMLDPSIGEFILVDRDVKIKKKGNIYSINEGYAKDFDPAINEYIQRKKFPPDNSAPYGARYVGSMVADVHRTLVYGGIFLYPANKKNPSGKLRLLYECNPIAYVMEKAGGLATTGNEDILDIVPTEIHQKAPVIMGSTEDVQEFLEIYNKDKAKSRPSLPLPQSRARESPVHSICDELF
Method: E. coli strain BL21 transformed with a human liver FBPase-encoding plasmid was obtained from Dr. M. R. El-Maghrabi at the State University of New York at Stony Brook. The enzyme was typically purified from 10 liters of recombinant E. coli culture as described (M. Gidh-Jain et al., 1994, The Journal of Biological Chemistry 269, pp 27732-27738). Enzymatic activity was measured spectrophotometrically in reactions that coupled the formation of product (fructose 6-phosphate) to the reduction of dimethylthiazoldiphenyltetrazolium bromide (MTT) via NADP^+ and phenazine methosulfate (PMS), using phosphoglucose isomerase and glucose 6-phosphate dehydrogenase as the coupling enzymes. Reaction mixtures (200 μl) were made up in 96-well microtitre plates, and consisted of 50 mM Tris-HCl, pH 7.4, 100 mM KCl, 5 mM EGTA, 2 mM MgCl2, 0.2 mM NADP, 1 mg/ml BSA, 1 mM MTT, 0.6 mM PMS, 1 unit/ml phosphoglucose isomerase, 2 units/ml glucose 6-phosphate dehydrogenase, and 0.150 mM substrate (fructose 1,6-bisphosphate). Inhibitor concentrations were varied from 0.01 μM to 10 μM. Reactions were started by the addition of 0.002 units of pure hlFBPase, and were monitored for 7 minutes at 590 nm in a Molecular Devices Plate Reader (37° C.).
E. coli strain BL21 transformed with a rat liver FBPase-encoding plasmid was obtained from Dr. M. R. El-Maghrabi at the State University of New York at Stony Brook. Recombinant FBPase was purified as described (El-Maghrabi, M. R., and Pilkis, S. J. (1991) BioChem. Biophys. Res. Commun. 176, 137-144) The enzyme assay was identical to that described above for human liver FBPase.

human liver FBPase = molecular target: T2, human liver FBPase (Homo sapiens, UniProt P09467); test: Inhibition of Human Liver FBPase; format: biochemical; conditions: read-out: IC50 (hlFBPase)
T2 construct: made in house; host or cells: E. coli BL21
T2 sequence (P09467 2-338 limits assumed): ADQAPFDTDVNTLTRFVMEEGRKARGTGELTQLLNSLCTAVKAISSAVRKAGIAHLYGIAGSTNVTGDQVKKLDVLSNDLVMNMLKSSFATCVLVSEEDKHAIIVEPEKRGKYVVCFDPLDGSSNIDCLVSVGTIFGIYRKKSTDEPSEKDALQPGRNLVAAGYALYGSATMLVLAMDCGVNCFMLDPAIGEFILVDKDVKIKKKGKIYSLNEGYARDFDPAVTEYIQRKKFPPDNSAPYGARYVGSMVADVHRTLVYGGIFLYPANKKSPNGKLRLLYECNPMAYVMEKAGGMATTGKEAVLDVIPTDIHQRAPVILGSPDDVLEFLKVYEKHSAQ
Method: […] […] Enzymatic activity was measured spectrophotometrically in reactions that coupled the formation of product (fructose 6-phosphate) to the reduction of dimethylthiazoldiphenyltetrazolium bromide (MTT) via NADP^+ and phenazine methosulfate (PMS), using phosphoglucose isomerase and glucose 6-phosphate dehydrogenase as the coupling enzymes. […] Inhibitor concentrations were varied from 0.01 μM to 10 μM. Reactions were started by the addition of 0.002 units of pure hlFBPase, and were monitored for 7 minutes at 590 nm in a Molecular Devices Plate Reader (37° C.).

Row | pIC50 (rat liver FBPase) | pIC50 (human liver FBPase) | melting point | SMILES
1 | 4.70 |  |  | Nc1ncnc2c1ncn2[C@@H]1O[C@H](COP(=O)(O)O)[C@@H](O)[C@H]1O [AMP, reference compound]
2 | 6.30 |  |  | CCOC(=O)c1sc(N)nc1-c1ccc(P(=O)(O)O)o1 [Compound 3.25, 2-Amino-5-ethoxycarbonyl-4-[2-(5-phosphono)furanyl]thiazole]
3 |  | 5.70 |  | Nc1nc(-c2cccc(P(=O)(O)O)n2)cs1 [Compound 3.67, 2-Amino-4-[2-(6-phosphono)pyridyl]thiazole hydrobromide]
4 | 6.30 |  |  | Nc1nc(-c2ccc(P(=O)(O)O)o2)c(-c2cccs2)s1 [Compound 6.3]
5 | 5.54 | 7.42 |  | CCOC(=O)c1oc(N)nc1-c1ccc(P(=O)(O)O)o1 [Compound 10.27, 2-Amino-5-ethoxycarbonyl-4-[2-(5-phosphono)furanyl]oxazole]
6 | 6.10 | 7.15 |  | CCCSc1oc(N)nc1-c1ccc(P(=O)(O)O)o1 [Compound 10.43, 2-Amino-5-propylthio-4-[2-(5-phosphono)furanyl]oxazole]
7 | 5.89 |  |  | Nc1ccc(Br)c(-c2ccc(P(=O)(O)O)o2)n1 [Compound 15.2, 6-Amino-3-bromo-2-[2-(5-phosphono)furanyl]pyridine]
8 | 5.39 |  | 217 to 218 °C | CCc1cc(CC)c(-c2ccc(P(=O)(O)O)o2)nc1N [Compound 15.4, 2-amino-3,5-diethyl-6-[2-(5-phosphono)furanyl]pyridine]
9 | 5.15 |  |  | O=P(O)(O)c1ccc(-c2ccccn2)o1 [Compound 15.6, 2-[2-(5-Phosphono)furanyl]pyridine]
10 | 6.17 | 7.49 |  | CCCc1ccc(N)nc1-c1ccc(P(=O)(O)O)o1 [Compound 15.14, 6-Amino-3-propyl-2-[2-(5-phosphono)furanyl]pyridine]
11 | 6.22 | 7.40 |  | Nc1ccc(C2CC2)c(-c2ccc(P(=O)(O)O)o2)n1 [Compound 15.20, 2-Amino-5-cyclopropyl-6-[2-(5-phosphono)furanyl]pyridine]
12 |  | 6.21 |  | CSc1nccnc1-c1ccc(P(=O)(O)O)o1 [Compound 17.6, 3-Methylthio-2-[2-(5-phosphono)furanyl]pyrazine]
13 |  | 6.11 |  | Nc1nc(-c2ccccc2)nc(-c2ccc(P(=O)(O)O)o2)n1 [Compound 17.11, 2-Amino-4-phenyl-6-[2-(5-phosphono)furanyl]triazine]
14 | 6.31 | 7.30 |  | CCc1sc(N)nc1C(=O)OCP(=O)(O)O [Compound 18.3, 2-amino-5-ethyl-4-phosphonomethoxycarbonylthiazole]
15 |  | 6.48 |  | Nc1nc(C(=O)NCP(=O)(O)O)c(Br)s1 [Compound 18.11, 2-Amino-5-bromo-4-[(N-phosphonomethyl)carbamoyl]thiazole]
16 | 6.55 | 7.41 |  | CC(C)c1sc(N)nc1C(=O)OCP(=O)(O)O [Compound 18.20, 2-Amino-5-isopropyl-4-phosphonomethoxycarbonylthiazole]
17 |  | 5.70 |  | Nc1nc(NC(=O)CP(=O)(O)O)ccc1Br [Compound 18.25, 2-Amino-3-bromo-6-[(N-phosphonoacetyl)amino]pyridine]
18 |  | 6.40 |  | CC(C)Cc1cn(C)nc1-c1ccc(P(=O)(O)O)o1 [Compound 19.2, 1-methyl-4-isobutyl-3-[2-(5-phosphono)furanyl]pyrazole]

Row | pIC50 (rat liver FBPase) | pIC50 (human liver FBPase) | melting point | SMILES
19 |  | 5.55 |  | CSc1sc(N)nc1CCC(F)(F)P(=O)(O)O [Compound 22.2, 2-Amino-5-methylthio-4-[1-(3-phosphono-3,3-difluoro)propyl]thiazole]
20 |  |  | > 230 °C (dec.) | Cc1c(Cl)c(OCP(=O)(O)O)c2nc(N)sc2c1Cl [Compound 29.5, 2-Amino-5,7-dichloro-6-methyl-4-phosphonomethoxybenzothiazole]
21 |  |  | > 230 °C (dec.) | Nc1nc2c(OCP(=O)(O)O)cc(C(=O)O)cc2s1 [Compound 29.6, 2-Amino-4-phosphonomethoxy-6-carboxybenzothiazole]
22 |  |  | > 250 °C (dec.) | Nc1nc2c(OCP(=O)(O)O)cc(Cl)cc2s1 [Compound 31.3, 2-Amino-6-chloro-4-phosphonomethoxybenzothiazole]
23 |  |  | > 250 °C (dec.) | Nc1nc2c(OCP(=O)(O)O)cc(Cl)c(Cl)c2s1 [Compound 31.4, 2-Amino-6,7-dichloro-4-phosphonomethoxybenzothiazole]
24 |  |  | > 250 °C (dec.) | Cc1cc(OCP(=O)(O)O)c2nc(N)sc2c1 [Compound 32.2, 2-Amino-6-methyl-4-phosphonomethoxybenzothiazole]
25 |  |  | > 250 °C (dec.) | N#Cc1ccc(OCP(=O)(O)O)c2nc(N)sc12 [Compound 32.3, 2-Amino-7-cyano-4-phosphonomethoxybenzothiazole]
26 | 6.80 | 7.66 |  | CCc1c(SC#N)cc(OCP(=O)(O)O)c2nc(N)sc12 [Compound 34.1, 2-amino-7-ethyl-6-thiocyano-4-phosphonomethoxybenzothiazole]
27 |  |  | > 250 °C (dec.) | CCc1cc(OCP(=O)(O)O)c2nc(N)sc2c1F [Compound 34.5, 2-Amino-6-ethyl-7-fluoro-4-phosphonomethoxybenzothiazole]
28 |  |  | > 250 °C (dec.) | Cc1c(Cl)cc(OCP(=O)(O)O)c2nc(Cl)sc12 [Compound 37.2, 2-Chloro-4-phosphonomethoxy-6-chloro-7-methyl benzothiazole]
29 |  |  | > 250 °C (dec.) | CCCCCCc1c(C)cc(OCP(=O)(O)O)c2nc(N)sc12 [Compound 40.2, 2-Amino-6-methyl-7-(n-hexyl)-4-phosphonomethoxybenzothiazole]
30 |  |  | > 220 °C (dec.) | CCc1cc(OCP(=O)(O)O)c2nc(N)sc2c1 [Compound 42.1, 2-Amino-6-ethyl-4-phosphonomethoxybenzothiazole]
31 |  |  | > 220 °C (dec.) | CCCOc1c(SC#N)cc(OCP(=O)(O)O)c2nc(N)sc12 [Compound 44.1, 2-Amino-7-propyloxy-6-thiocyano-4-phosphonomethoxy benzothiazole]
32 |  |  | > 230 °C (dec.) | COc1cc(OCP(=O)(O)O)c2nc(N)sc2c1 [Compound 45.1, 2-Amino-6-methoxy-4-phosphonomethoxybenzothiazole]
33 |  |  | > 250 °C (dec.) | Cc1cc(OCP(=O)(O)O)c2nc(N)sc2c1Br [Compound 47.1, 2-Amino-7-bromo-6-methyl-4-phosphonomethoxybenzothiazole]
34 |  |  | > 250 °C (dec.) | Cc1cc(OCP(=O)(O)O)c2nc(N)sc2c1Cl [Compound 48.2, 2-Amino-7-chloro-6-methyl-4-phosphonomethoxybenzothiazole]
35 | 6.26 |  |  | CCc1cc(F)c(N)c2nc(-c3ccc(P(=O)(O)O)o3)n(CC(C)C)c12 [Compound A, 4-Amino-5-fluoro-7-ethyl-1-isobutyl-2-(2-phosphono-5-furanyl)benzimidazole]
36 | 5.68 |  |  | Nc1c(F)ccc2c1nc(-c1ccc(P(=O)(O)O)o1)n2CC1CC1 [Compound B, 4-Amino-5-fluoro-1-cyclopropylmethyl-2-(2-phosphono-5-furanyl)benzimidazole]

Row | SMILES | pIC50 (rat liver FBPase) | pIC50 (human liver FBPase) | melting point
37 | CC(C)Cc1sc(N)nc1-c1ccc(P(=O)(O)O)o1 [Compound 3.1, 2-amino-5-isobutyl-4-[2-(5-phosphono)furanyl]thiazole] | 6.74 |  | 
38 | CC(C)Cc1[se]c(N)nc1-c1ccc(P(=O)(O)O)o1 [Compound 3.70, 2-Amino-5-isobutyl-4-[2-(5-phosphono)furanyl]selenazole] | 6.82 | 7.40 | 
